Reference: patent publication US10071974B2, “Morpholine and 1,4-oxazepane amides as somatostatin receptor subtype 4 (SSTR4) agonists” (Boehringer Ingelheim International GmbH, priority 2014, dated 2018)
Read-outs that look alike come from different tables or passages of the source.

Key:
[1] = target: human Somatostatin 4 Receptor (SSTR4) (Homo sapiens (Human), UniProt P31391); experiment: cAMP assay with human somatostatin 4 receptor (hSSTR4 expressing H4 cells); type: cell-based; details: read-out: SSTR4 agonism EC50
human Somatostatin 4 Receptor (SSTR4), sequence (P31391 whole entry): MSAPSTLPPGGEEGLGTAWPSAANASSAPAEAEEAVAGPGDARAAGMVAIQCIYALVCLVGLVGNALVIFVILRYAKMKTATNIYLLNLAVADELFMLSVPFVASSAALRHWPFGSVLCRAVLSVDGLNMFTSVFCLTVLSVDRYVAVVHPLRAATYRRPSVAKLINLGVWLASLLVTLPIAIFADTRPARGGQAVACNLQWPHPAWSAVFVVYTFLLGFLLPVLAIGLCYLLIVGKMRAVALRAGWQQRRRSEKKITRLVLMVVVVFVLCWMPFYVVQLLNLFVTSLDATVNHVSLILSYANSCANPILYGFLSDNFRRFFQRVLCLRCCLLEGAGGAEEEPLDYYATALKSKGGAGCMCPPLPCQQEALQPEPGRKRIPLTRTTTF

[2] = Metabolic stability in pooled human liver microsomes; details: 1 μM test compound, 37° C.
in vitro = details: human, microsomes, pH 7.6
human SSTR5 = human SSTR5 (Homo sapiens (Human), UniProt P35346); experiment: Radioligand binding assay, CHO cell membranes expressing recombinant human SSTR5
human SSTR5, sequence (P35346 whole entry): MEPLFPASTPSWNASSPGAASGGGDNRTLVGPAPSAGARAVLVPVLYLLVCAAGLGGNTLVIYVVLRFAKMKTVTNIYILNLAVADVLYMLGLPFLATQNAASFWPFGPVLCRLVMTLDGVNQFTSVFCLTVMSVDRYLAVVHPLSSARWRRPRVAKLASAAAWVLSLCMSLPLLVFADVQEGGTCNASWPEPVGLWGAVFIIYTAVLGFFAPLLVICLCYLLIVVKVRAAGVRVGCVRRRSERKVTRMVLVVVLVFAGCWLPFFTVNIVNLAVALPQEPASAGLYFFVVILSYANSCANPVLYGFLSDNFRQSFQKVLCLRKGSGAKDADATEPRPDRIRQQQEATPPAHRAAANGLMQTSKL
From the text: (§1) Radioligand Binding Assays
(§2) Method description for binding assays with human Somatostatin receptors by use of CHO cell membranes expressing recombinant human SSTR1 or human SSTR2 or human SSTR3 or human SSTR4 or human SSTR5
(§3) Receptor binding assays refer to a technique in which labeled receptor ligands are used to detect binding to a receptor. In competition experiments test compounds, which are not labeled, compete with the binding side of a labeled ligand. The displacement of the labeled ligand by the test compound leads to a decreased signal.
(§4) For the binding experiments 200 μL of membrane homogenate from one of the following protein amounts is used: hSSTR1 (40 μg/well); hSSTR2 (25 μg/well); hSSTR3 (1.5 μg/well); hSSTR4 (0.5 μg/well); hSSTR5 (25 μg/well). The homogenate is incubated with 0.05 nM of radioligand ([3-125I-Tyr]-Somatostatin-(1-14)) in addition to increasing concentrations of a test compound or vehicle (100% binding) in a total volume of 250 μL using a Hepes buffer (10 mM, EDTA 1 mM, MgCl2 5 mM, pH7.6, BSA 0.5%, Bacitracin 0.003%, DMSO 1%) for 180 min at room temperature. The incubation is terminated by filtration with ice cold NaCl 0.9% through polyethyleneimine treated (0.3%) GF/B glass fiber filters using a cell harvester. The protein-bound radioactivity is measured in a suitable reader. The non-specific binding is defined as radioactivity bound in the presence of 1 μM Somatostatin-14 during the incubation period.
(§5) The analysis of the concentration-binding curves is performed by computer-assisted nonlinear least square curve fitting method using the model of one receptor binding site.
(§6) Selectivity data was obtained with the aid of the above described radioligand binding assays.

human SSTR3 = human SSTR3 (Homo sapiens (Human), UniProt P32745); experiment: Radioligand binding assay, CHO cell membranes expressing recombinant human SSTR3
human SSTR3, sequence (P32745 whole entry): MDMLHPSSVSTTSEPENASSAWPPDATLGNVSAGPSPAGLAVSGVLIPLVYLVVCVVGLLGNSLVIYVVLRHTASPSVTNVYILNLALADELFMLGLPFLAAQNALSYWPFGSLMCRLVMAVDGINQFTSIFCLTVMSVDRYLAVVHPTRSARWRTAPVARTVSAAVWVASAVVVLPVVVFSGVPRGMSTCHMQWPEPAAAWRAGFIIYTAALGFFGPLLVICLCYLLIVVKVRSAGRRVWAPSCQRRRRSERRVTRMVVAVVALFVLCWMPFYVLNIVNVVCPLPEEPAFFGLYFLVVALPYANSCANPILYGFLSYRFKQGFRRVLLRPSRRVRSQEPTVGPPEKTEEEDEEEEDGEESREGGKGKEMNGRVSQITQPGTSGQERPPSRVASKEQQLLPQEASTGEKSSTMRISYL
From the text: as §1, §2, §3, §4, §5, §6

human SSTR4 = human SSTR4 (Homo sapiens (Human), UniProt P31391); experiment: Radioligand binding assay, CHO cell membranes expressing recombinant human SSTR4
human SSTR4, sequence (P31391 whole entry): as the sequence (P31391 whole entry) above
From the text: as §1, §2, §3, §4, §5, §6

human SSTR1 = human SSTR1 (Homo sapiens (Human), UniProt P30872); experiment: Radioligand binding assay, CHO cell membranes expressing recombinant human SSTR1
human SSTR1, sequence (P30872 whole entry): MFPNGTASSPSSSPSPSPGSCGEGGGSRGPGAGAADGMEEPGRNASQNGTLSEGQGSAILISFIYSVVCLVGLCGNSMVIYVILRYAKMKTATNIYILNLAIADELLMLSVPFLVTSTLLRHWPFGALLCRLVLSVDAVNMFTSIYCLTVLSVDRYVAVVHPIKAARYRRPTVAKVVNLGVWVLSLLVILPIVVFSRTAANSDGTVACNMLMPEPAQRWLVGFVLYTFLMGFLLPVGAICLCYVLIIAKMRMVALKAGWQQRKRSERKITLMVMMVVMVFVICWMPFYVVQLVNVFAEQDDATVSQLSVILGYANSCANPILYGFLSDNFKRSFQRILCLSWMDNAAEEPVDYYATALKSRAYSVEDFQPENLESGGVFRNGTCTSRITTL
From the text: as §1, §2, §3, §4, §5, §6

human SSTR2 = human SSTR2 (Homo sapiens (Human), UniProt P30874); experiment: Radioligand binding assay, CHO cell membranes expressing recombinant human SSTR2
human SSTR2, sequence (P30874 whole entry): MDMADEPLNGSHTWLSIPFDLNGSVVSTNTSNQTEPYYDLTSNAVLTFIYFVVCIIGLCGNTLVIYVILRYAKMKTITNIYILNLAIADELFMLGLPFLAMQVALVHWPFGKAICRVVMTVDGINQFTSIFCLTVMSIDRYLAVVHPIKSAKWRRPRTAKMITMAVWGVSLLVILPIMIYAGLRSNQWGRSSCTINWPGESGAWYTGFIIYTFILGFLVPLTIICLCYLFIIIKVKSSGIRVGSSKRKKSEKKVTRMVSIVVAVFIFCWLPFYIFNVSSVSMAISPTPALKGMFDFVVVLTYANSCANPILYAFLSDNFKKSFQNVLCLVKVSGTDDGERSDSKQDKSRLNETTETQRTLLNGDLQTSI
From the text: as §1, §2, §3, §4, §5, §6

[3] = human, microsomes

EC50 [1]	Half-life t1/2 [2]	half-life at 1 μM (in vitro)	Ki (human SSTR5)	Ki (human SSTR3)	Ki (human SSTR4)	Ki (human SSTR1)	Ki (human SSTR2)	Half-life t1/2 [3]	SMILES
0.0041 µM	>2.17 h	–	–	–	–	–	–	–	Cc1cccc2c(C(C)(C)NC(=O)[C@@H]3CNCCO3)nn(C)c12 [Example 83]
0.0032 µM	–	> 2.17 h	9.75 µM	8.62 µM	0.0892 µM	9.45 µM	9.6 µM	–	Cn1nc(C(C)(C)NC(=O)C2CNCCOC2)c2ccccc21 (single isomer, unassigned) [Example 21]
–	1.67 h	–	–	–	–	–	–	–	Cn1nc(C(C)(C)NC(=O)[C@@H]2CNCCO2)c2cccc(Cl)c21 [Example 79]
0.0362 µM	–	> 2.17 h	9.75 µM	8.62 µM	0.523 µM	9.45 µM	9.6 µM	–	Cn1nc(C(C)(C)NC(=O)C2CNCCCO2)c2ccccc21 (single isomer, unassigned) [Example 24]
–	–	–	–	–	–	–	–	>2.17 h	CC(C)(NC(=O)C1CNCCOC1)c1noc2c(Cl)cccc12 (single isomer, unassigned) [Example 73]
0.0133 µM	–	> 2.17 h	9.86 µM	8.71 µM	0.194 µM	9.01 µM	9.63 µM	–	Cn1nc(C(C)(C)NC(=O)[C@@H]2CNCCO2)c2ccccc21 [Example 19]
0.0045 µM	–	> 2.17 h	9.77 µM	8.69 µM	0.218 µM	9.48 µM	9.63 µM	–	Cc1cccn2c(C(C)(C)NC(=O)[C@@H]3CNCCO3)ncc12 [Example 95]
0.0613 µM	–	> 2.17 h	–	–	–	–	–	–	Cn1nc(C(C)(C)NC(=O)C2CCNCCO2)c2ccccc21 (racemic) [Example 26]
